The record followed here is patent US20250214969A1, “PROTEIN DEGRADERS AND USES THEREOF” (Kymera Therapeutics, Inc., priority 2022, published 2025).

The target of test [1] is T1, truncated His-MBP-Tev-KLHDC2 (residues 1-363) (Homo sapiens, UniProt Q9Y2U9).
T1 construct: truncated His -MBP-Tev-KLHDC2 (residues 1-363) purified from E. coli; made in house; host or cells: E. coli
T1 sequence (Q9Y2U9 1-363): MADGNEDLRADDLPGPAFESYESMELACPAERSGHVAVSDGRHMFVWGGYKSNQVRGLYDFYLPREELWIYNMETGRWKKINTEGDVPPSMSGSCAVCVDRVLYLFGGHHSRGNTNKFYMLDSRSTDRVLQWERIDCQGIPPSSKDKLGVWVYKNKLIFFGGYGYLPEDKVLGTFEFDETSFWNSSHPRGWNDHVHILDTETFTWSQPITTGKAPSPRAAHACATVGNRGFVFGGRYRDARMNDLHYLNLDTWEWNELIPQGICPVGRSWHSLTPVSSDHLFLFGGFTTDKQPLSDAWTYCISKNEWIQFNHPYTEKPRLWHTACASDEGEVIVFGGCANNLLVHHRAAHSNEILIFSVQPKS
Kind of test: KLHDC2 FP competition binding assay. Particulars: 15 nM KLHDC2 (residues 1-363), 10 nM fluorescein-labeled diglycine peptide probe, read-out: KLHDC2 binding Human FP: average external IC50.

The target in test [2] is T1, truncated His-MBP-Tev-KLHDC2 (residues 1-363). Kind of test: KLHDC2 HTRF binding assay. Particulars: 1 nM KLHDC2 (residues 1-363), fluorescein-labeled diglycine peptide probe. Background: In TR-FRET formats the signal depends on donor and acceptor labels being close together.

Turning to `COc1ccc(-c2ccccc2)cc1C(=O)Nc1ccc(=O)n(CC(=O)O)c1` [I-243], the IC50 in test [1] and in test [2] was above 5 µM in each case.

Take `O=C(O)Cn1cc(NC(=O)COc2ccc(Oc3ccccc3)cc2)ccc1=O` [I-244]: the IC50 in test [1] and in test [2] was above 5 µM each time.

Consider `O=C(O)Cn1cc(NC(=O)C2CCCc3cc(O)ccc32)ccc1=O` (stereo not shown) [I-245], for which the IC50 in test [1] and in test [2] was above 5 µM each time.

`Cc1nn(-c2ccc(F)cc2F)c(C)c1CC(=O)Nc1ccc(=O)n(CC(=O)O)c1` [I-246]: the IC50 in test [1] and in test [2] was above 5 µM throughout.

As for `O=C(O)Cn1cc(NC(=O)c2nccc3c(Cl)cccc23)ccc1=O` [I-248], the 50% inhibitory concentration (IC50) (as a rule, the concentration that gives 50% inhibition) in test [1] is above 5 µM; in test [2], 0.5 to 5 µM.

For the molecule `O=C(O)Cn1cc(NC(=O)c2ccc(-c3ccccc3)s2)ccc1=O` [I-249], the IC50 in test [1] is above 5 µM; in test [2], 0.5 to 5 µM.

In the case of `O=C(O)Cn1cc(NC(=O)COc2cccnc2)ccc1=O` [I-250], the half-inhibitory concentration (IC50) in test [1] and in test [2] was above 5 µM throughout.

With `O=C(O)Cn1cc(NC(=O)COc2cccc3cnccc23)ccc1=O` [I-251], the IC50 in test [1] and in test [2] was above 5 µM in each case.

For `O=C(O)Cn1cc(NC(=O)COc2cccc(C(F)(F)F)c2)ccc1=O` [I-252], the IC50 in test [1] and in test [2] was above 5 µM in each case.

Regarding `CCc1ccc(C(=O)CCC(=O)Nc2ccc(=O)n(CC(=O)O)c2)cc1` [I-253], the IC50 in test [1] and in test [2] was above 5 µM each time.

Consider `Cc1onc(-c2ccc(F)cc2)c1C(=O)Nc1ccc(=O)n(CC(=O)O)c1` [I-254], for which the IC50 in test [1] and in test [2] was above 5 µM in each case.

As for `O=C(O)Cn1cc(NC(=O)c2ccc(-c3ccccc3Cl)o2)ccc1=O` [I-255], the IC50 in test [1] and in test [2] was above 5 µM in each case.

For `O=C(O)Cn1cc(NC(=O)COc2ccc(C(F)(F)F)cc2)ccc1=O` [I-256], the IC50 in test [1] and in test [2] was above 5 µM throughout.

For `O=C(O)Cn1cc(NC(=O)COc2cc(Cl)cc(Cl)c2)ccc1=O` [I-257], the IC50 in test [1] and in test [2] was above 5 µM in each case.

For `N#Cc1cccc(OCC(=O)Nc2ccc(=O)n(CC(=O)O)c2)c1` [I-258], the IC50 in test [1] and in test [2] was above 5 µM in each case.

In the case of `COc1c(C(=O)Nc2ccc(=O)n(CC(=O)O)c2)cccc1-c1ccccc1` [I-259], the IC50 was above 5 µM in test [1] and 0.5 to 5 µM in test [2].

On to `O=C(O)Cn1cc(NC(=O)c2ccnc(-c3ccccc3)c2)ccc1=O` [I-260], for which the IC50 in test [1] and in test [2] was above 5 µM in each case.

`COc1cccc(OCC(=O)Nc2ccc(=O)n(CC(=O)O)c2)c1` [I-261]: the IC50 in test [1] and in test [2] was above 5 µM in each case.

`COc1cc(C(=O)Nc2ccc(=O)n(CC(=O)O)c2)cc(-c2ccccc2)c1` [I-262]: the IC50 in test [1] and in test [2] was above 5 µM in each case.

As to `O=C(O)Cn1cc(NC(=O)COc2cccc3ncccc23)ccc1=O` [I-263], the IC50 in test [1] and in test [2] was above 5 µM in each case.

Consider `O=C(O)Cn1cc(NC(=O)COc2ccccn2)ccc1=O` [I-264], for which the IC50 in test [1] and in test [2] was above 5 µM throughout.

Consider `O=C(O)Cn1cc(NC(=O)COc2cccc(Cl)c2)ccc1=O` [I-265], for which the IC50 in test [1] and in test [2] was above 5 µM each time.

Consider `Cc1ccccc1OCC(=O)Nc1ccc(=O)n(CC(=O)O)c1` [I-266], for which the IC50 in test [1] and in test [2] was above 5 µM each time.

In the case of `O=C(O)Cn1cc(NC(=O)c2cc(-c3ccccc3)ccn2)ccc1=O` [I-267], the IC50 in test [1] and in test [2] was above 5 µM throughout.

As for `O=C(O)Cn1cc(NC(=O)c2cccc(Br)c2)ccc1=O` [I-268], the IC50 in test [1] and in test [2] was above 5 µM throughout.

For the molecule `Cc1ccc(C(=O)Nc2ccc(=O)n(CC(=O)O)c2)cc1-c1ccccc1` [I-269], the IC50 was above 5 µM in test [1] and 0.5 to 5 µM in test [2].
